Measurements published in patent publication US6596756B1, “Treatment of fibromyalgia” (Eli Lilly and Company, priority 1999, dated 2003).
Like-named read-outs stand apart in the source and are kept apart here.

What was measured:
[1] = tested on: formalin-induced paw-licking behavior in the rat; details: for Early Phase (sum of time spent licking, 0 to 5 minutes) / Late Phase (sum of seconds spent licking, 15 to 40 minutes): mean ± SEM
Text: (Shibata, M., Ohkubo, T., Takahashi, H., and Inoki, R., “Modified formalin test: Characteristic biphasic pain response,” Pain (1989) 38: 347-352; and Tjolsen, A., Berge, O. G., Hunskaar, S., Rosland, J. H., and Hole, K., “The formalin test: an evaluation of the method,” Pain (1992) 51:5-17.) The effect of duloxetine on formalin-induced paw-licking behavior in the rat was investigated as an index of persistent nociceptive activation. In this test, the injection of formalin under the skin on the dorsal lateral surface of the hind paw of rats causes an immediate and intense increase in the spontaneous activity of C fiber afferents. This activation evokes a distinctly quantifiable behavior indicative of pain, such as licking, flinching, shaking or biting of the injected paw. The behavioral response to formalin is biphasic, with an early phase that is short lived, followed by an extended tonic response or late phase of persistent nociceptive activation. Mechanisms causing the late phase response, such as central sensitization of pain transmitting neurons, are currently believed to contribute to various types of persistent pains.
(§1) Male Sprague-Dawley rats (200-250 g; Charles River, Portage, Mich.) were maintained at constant temperature and light (12 h light/12 h dark) for 4-7 days prior to the studies. Animals had free access to food and water at all times prior to the day of the experiment.
The formalin test was performed in custom made Plexiglas® boxes 25×25×20 cm (length×width×height) in size. A mirror placed at the back of the box allowed the unhindered observation of the formalin injected paw. Rats were acclimatized individually in the cubicles at least 1 hour prior to the experiment. All testing was conducted between 08:00 and 14:00 hr and the testing room temperature was maintained at 21-23° C. Test compound was administered 30 or 60 minutes prior to the formalin injection. Formalin (50 μl of a 5% solution in saline) was injected subcutaneously into the dorsal lateral surface of the right hind paw with a 27 gauge needle. Observation started immediately after the formalin injection. Formalin-induced pain was quantified by recording in 5 minute intervals the number of formalin injected paw licking events and the number of seconds each licking event lasted. These recordings were made for 50 minutes after the formalin injection. After the experiment, animals were killed with an overdose of CO2. (Euthanasia protocol, Eli Lilly Animal Use and Care Committee.)
Scoring in the formalin test was performed according to Coderre et al., 1993b and Abbott et al., 1995. (Coderre T. J., Fundytus M. E., McKenna J. E., Dalal S. and Melzack R. “The formalin test: a validation of the weighted-scores method of the behavioral pain rating,” Pain(1993b) 54: 43-50; and Abbott F. V., Franklin K. B. J. and Westbrook R. F. “The formalin test: scoring properties of the first and second phases of the pain response in rats,” Pain (1995) 60: 91-102.) The sum of time spent licking in seconds from time 0 to 5 minutes was considered the early phase while the late phase was taken as the sum of seconds spent licking from 15 to 40 minutes.
Data are presented as means with standard errors of means (±SEM). Data were evaluated by one-way analysis of variance (ANOVA) and the appropriate contrasts analyzed by Tukey's test and Dunnett “t” test for two-sided comparisons.

Male Sprague-Dawley rats = details: rat; for Ataxia score 80 mins after drug, i.p. / Ataxia score, 30 mins after drug, i.p. / Ataxia Score, 60 mins after drug, p.o. / Ataxia score 110 mins after drug, p.o.: maximum score 40 seconds, mean ± SEM
Experimental: The tendency of duloxetine to induce ataxia or neuromuscular effects at analgesic doses was investigated using the well-known rotorod test.
as §1
An automated accelerating rotorod (Omnitech Electronics Inc., Columbus, Ohio) connected to an IBM PC computer was utilized. For training and testing purposes, the rotorod was set up to accelerate to 17 r.p.m. in 5 seconds and maintaining that speed for 40 seconds. Rats were given 3 training trials to learn to maintain posture on the rotorod prior to the actual day of drug testing. The following day, rotorod testing was conducted both at 30 and 80 minutes for i.p. and at 60 and 110 minutes for p.o. following administration of drug or compound.
All data were analyzed using the JMP statistical program. Data are presented as means with standard errors of means (±SEM). Data were evaluated by one-way analysis of variance (ANOVA) and the appropriate contrasts analyzed by Tukey's test and Dunnett “t” test for two-sided comparisons.

[2] = tested on: mechanical allodynia due to the nerve ligation in rats; details: rat; for Allodynia Response: nerve ligation, mean ± SEM, p < 0.05 vs vehicle
Experimental: All data were analyzed using the JMP statistical program. […] Data were evaluated by one-way analysis of variance (ANOVA) and the appropriate contrasts analyzed by Tukey's test and Dunnett “t” test for two-sided comparisons.

[3] = 3 mg/kg i.p., 30 min before formalin
[4] = 3 mg/kg p.o., 60 min before formalin

SMILES: CNCCC(Oc1cccc2ccccc12)c1cccs1 (stereo not drawn) [duloxetine, N-methyl-3-(1-naphthalenyloxy)-3-(2-thienyl)propanamine]
- Early Phase (sum of time spent licking, 0 to 5 minutes) [1, 3]: 32.78 ± 15.97 s
- Late Phase (sum of seconds spent licking, 15 to 40 minutes) [1, 3]: 254.00 ± 45.87 s
- Early Phase (sum of time spent licking, 0 to 5 minutes) [1, 4]: 21.78 ± 5.14 s
- Late Phase (sum of seconds spent licking, 15 to 40 minutes) [1, 4]: 393.56 ± 26.74 s
- Early Phase (sum of time spent licking, 0 to 5 minutes) ([1]; 10 mg/kg i.p., 30 min before formalin): 17.00 ± 5.83 s
- Late Phase (sum of seconds spent licking, 15 to 40 minutes) ([1]; 10 mg/kg i.p., 30 min before formalin, p < 0.05 vs vehicle): 163.89 ± 54.14 s
- Early Phase (sum of time spent licking, 0 to 5 minutes) ([1]; 10 mg/kg p.o., 60 min before formalin): 20.22 ± 5.29 s
- Late Phase (sum of seconds spent licking, 15 to 40 minutes) ([1]; 10 mg/kg p.o., 60 min before formalin, p < 0.05 vs vehicle): 255.78 ± 38.22 s
- Early Phase (sum of time spent licking, 0 to 5 minutes) ([1]; 15 mg/kg i.p., 30 min before formalin): 29.56 ± 16.30 s
- Late Phase (sum of seconds spent licking, 15 to 40 minutes) ([1]; 15 mg/kg i.p., 30 min before formalin, p < 0.05 vs vehicle): 80.44 ± 36.22 s
- Early Phase (sum of time spent licking, 0 to 5 minutes) ([1]; 20 mg/kg p.o., 60 min before formalin): 12.67 ± 3.61 s
- Late Phase (sum of seconds spent licking, 15 to 40 minutes) ([1]; 20 mg/kg p.o., 60 min before formalin, p < 0.05 vs vehicle): 161.11 ± 31.77 s
- effect on late phase response to formalin (in words) ([1]; i.p. and p.o. dosing): blocks the late phase response to formalin in a dose-dependent manner
- Ataxia score 80 mins after drug, i.p. (Male Sprague-Dawley rats; 3 mg/kg i.p.): 33.35 ± 3.23 s
- Ataxia score, 30 mins after drug, i.p. (Male Sprague-Dawley rats; 3 mg/kg i.p.): 34.27 ± 4.02 s
- Ataxia Score, 60 mins after drug, p.o. (Male Sprague-Dawley rats; 3 mg/kg p.o.): 40.00 ± 0.00 s
- Ataxia score 110 mins after drug, p.o. (Male Sprague-Dawley rats; 3 mg/kg p.o.): 40.00 ± 0.00 s
- Ataxia score 80 mins after drug, i.p. (Male Sprague-Dawley rats; 10 mg/kg i.p.): 26.07 ± 6.24 s
- Ataxia score, 30 mins after drug, i.p. (Male Sprague-Dawley rats; 10 mg/kg i.p.): 29.42 ± 6.71 s
- Ataxia Score, 60 mins after drug, p.o. (Male Sprague-Dawley rats; 10 mg/kg p.o.): 39.11 ± 0.89 s
- Ataxia score 110 mins after drug, p.o. (Male Sprague-Dawley rats; 10 mg/kg p.o.): 39.56 ± 0.44 s
- Ataxia Score, 60 mins after drug, p.o. (Male Sprague-Dawley rats; 20 mg/kg p.o.): 40.00 ± 0.00 s
- Ataxia score 110 mins after drug, p.o. (Male Sprague-Dawley rats; 20 mg/kg p.o.): 40.00 ± 0.00 s
- Ataxia score 80 mins after drug, i.p. (Male Sprague-Dawley rats; 30 mg/kg i.p.): 25.52 ± 5.89 s
- Ataxia score, 30 mins after drug, i.p. (Male Sprague-Dawley rats; 30 mg/kg i.p.): 24.75 ± 6.88 s
- ataxia or neuromuscular effects in the rotorod test (in words) (Male Sprague-Dawley rats; at doses that caused analgesia): did not show ataxia or neuromuscular effects
- effect on allodynia following partial ligation of the sciatic nerve (in words) ([2]; after acute or sub-chronic systemic administration): attenuates the allodynia
- Allodynia Response ([2]; 15 mg/kg i.p., 1 hour pretreatment): 8.57 ± 1.72 g
- Allodynia Response ([2]; 20 mg/kg p.o., 1 hour pretreatment): 8.53 ± 1.66 g
- Allodynia Response ([2]; 20 mg/kg × 4 day p.o., sub-chronic pretreatment (once a day for four consecutive days)): 9.18 ± 2.95 g
